Measured values taken from patent publication US6737383B1, “Herbicidal oxadiazolidines” (priority 1999, dated 2004).

Legend:
sugar beet = assay: Test B pre/postemergence sugar beet; type: in vivo, Beta vulgaris; settings: for Sugarbeets plant response rating: scale of 0 to 10 where 0 is no effect and 10 is complete control
Outline: (§1)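 Test chemicals in a non-phytotoxic solvent mixture with surfactant were sprayed preemergence onto planted seeds and postemergence onto plants 2 to 18 cm tall (1- to 4-leaf stage). After twelve to sixteen days in a greenhouse, injury was visually rated against untreated controls from 0 (no effect) to 10 (complete control).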

velvetleaf = assay: Test B pre/postemergence velvetleaf; type: in vivo, Abutilon theophrasti; settings: for Velvetleaf plant response rating: scale of 0 to 10 where 0 is no effect and 10 is complete control
Outline: as §1

smallflower flatsedge = assay: Test B flood test smallflower flatsedge; type: in vivo, Cyperus difformis
Outline: (§2)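 Flood test on plants grown to the 2-leaf stage; treated plants kept in greenhouse twelve to sixteen days, then visually rated against controls on a 0 (no effect) to 10 (complete control) scale.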

cocklebur = assay: Test B pre/postemergence cocklebur; type: in vivo, Xanthium strumarium; settings: for Cocklebur plant response rating: scale of 0 to 10 where 0 is no effect and 10 is complete control
Outline: as §1

purple nutsedge = assay: Test B pre/postemergence purple nutsedge; type: in vivo, Cyperus rotundus; settings: for Nutsedge plant response rating: scale of 0 to 10 where 0 is no effect and 10 is complete control
Outline: as §1

surinam grass = assay: Test B pre/postemergence surinam grass; type: in vivo, Brachiaria decumbens
Outline: as §1

corn = assay: Test B pre/postemergence corn; type: in vivo, Zea mays; settings: for Corn plant response rating: scale of 0 to 10 where 0 is no effect and 10 is complete control
Outline: as §1

bamyardgrass = assay: Test B flood test barnyardgrass; type: in vivo, Echinochloa crus-galli
Outline: as §2

pigweed = assay: Test B pre/postemergence pigweed; type: in vivo, Amaranthus retroflexus; settings: for Redroot pigweed plant response rating: scale of 0 to 10 where 0 is no effect and 10 is complete control
Outline: as §1

blackgrass = assay: Test B pre/postemergence blackgrass; type: in vivo, Alopecurus myosuroides
Outline: as §1

soybean = assay: Test B pre/postemergence soybean; type: in vivo, Glycine max; settings: for Soybean plant response rating: scale of 0 to 10 where 0 is no effect and 10 is complete control
Outline: as §1

wild oat = assay: Test B pre/postemergence wild oat; type: in vivo, Avena fatua; settings: for Wild oats plant response rating: scale of 0 to 10 where 0 is no effect and 10 is complete control
Outline: as §1

rape = assay: Test B pre/postemergence rape; type: in vivo, Brassica napus; settings: for Rape plant response rating: scale of 0 to 10 where 0 is no effect and 10 is complete control
Outline: as §1

bedstraw = assay: Test B pre/postemergence bedstraw; type: in vivo, Galium aparine; settings: Postemergence
Outline: as §1

morningglory = assay: Test B pre/postemergence morningglory; type: in vivo, Ipomoea hederacea; settings: for Morningglory plant response rating: scale of 0 to 10 where 0 is no effect and 10 is complete control
Outline: as §1

rice = assay: Test B flood test rice; type: in vivo, Oryza sativa
Outline: as §2

[1] = Postemergence, Rate 125 g/ha, scale 0 to 10, 0 is no effect, 10 is complete control
[2] = Preemergence, Rate 62 g/ha, scale 0 to 10 (0 no effect, 10 complete control)
[3] = Rate 500 g/ha, Postemergence, scale 0 to 10, 0 no effect, 10 complete control
[4] = Postemergence (flood test), Rate 125 g/ha, scale 0 to 10, 0 is no effect, 10 is complete control
[5] = Rate 62 g/ha, Postemergence (flood test species), scale of 0 to 10 where 0 is no effect and 10 is complete control
[6] = Preemergence, Rate 500 g/ha, scale of 0 to 10 where 0 is no effect and 10 is complete control
[7] = Rate 62 g/ha, Postemergence, scale of 0 to 10 where 0 is no effect and 10 is complete control
[8] = Rate 250 g/ha, Postemergence, scale of 0 to 10 where 0 is no effect and 10 is complete control
[9] = Rate 500 g/ha, listed under Postemergence (flood test species), scale 0 to 10, 0 no effect, 10 complete control

CC(C)N(C(=O)n1oc(=O)n(C2CCC2)c1=O)c1ccc(Cl)cc1 [Compound 349]
4: Sugarbeets plant response rating (sugar beet; Preemergence, Rate 250 g/ha) | Sugarbeets plant response rating (sugar beet; Preemergence, Rate 500 g/ha) | B. signalgrass plant response rating (surinam grass; [6]) | Plant response rating, Redroot pigweed (pigweed; [3]) | Plant response rating, Blackgrass (blackgrass; [1]) | Blackgrass plant response rating (blackgrass; Preemergence, Rate 250 g/ha, scale of 0 to 10 where 0 is no effect and 10 is complete control) | Blackgrass plant response rating (blackgrass; [6]) | Plant response rating, Blackgrass (blackgrass; [8]) | Rape plant response rating (rape; Preemergence, Rate 500 g/ha)
2: Sugarbeets plant response rating (0 to 10 scale) (sugar beet; Preemergence, Rate 125 g/ha) | Corn plant response rating (corn; Preemergence, Rate 500 g/ha) | Plant response rating, Barnyardgrass (bamyardgrass; [4]) | Barnyardgrass plant response rating (bamyardgrass; [5]) | Plant response rating, Redroot pigweed (pigweed; [1]) | Redroot pigweed plant response rating (pigweed; Preemergence, Rate 250 g/ha) | Plant response rating, Blackgrass (blackgrass; [2]) | Blackgrass plant response rating (0 to 10 scale) (blackgrass; Preemergence, Rate 125 g/ha) | Plant response rating, Soybean (soybean; [1]) | Plant response rating, Soybean (soybean; [3]) | Bedstraw plant response rating (bedstraw; Rate 62 g/ha, scale of 0 to 10 where 0 is no effect and 10 is complete control)
6: Plant response rating, Blackgrass (blackgrass; [3])
7: Redroot pigweed plant response rating (pigweed; Preemergence, Rate 500 g/ha)
5: Plant response rating, S. Flatsedge (smallflower flatsedge; [4]) | Plant response rating, Morningglory (morningglory; [1]) | Morningglory plant response rating (morningglory; Rate 62 g/ha, Postemergence)
1: Plant response rating, Cocklebur (cocklebur; [3]) | Blackgrass plant response rating (blackgrass; [7]) | Soybean plant response rating (soybean; Rate 62 g/ha, Postemergence)
9: Plant response rating, Barnyardgrass (bamyardgrass; Rate 250 g/ha, Postemergence (flood test species), scale of 0 to 10 where 0 is no effect and 10 is complete control) | Plant response rating, Barnyardgrass (bamyardgrass; [9]) | Wild oats plant response rating (wild oat; Preemergence, Rate 500 g/ha)
0: Plant response rating, Sugarbeets (sugar beet; [1]) | Plant response rating, Sugarbeets (sugar beet; [2]) | Sugarbeets plant response rating (sugar beet; Rate 62 g/ha, Postemergence) | Plant response rating, Sugarbeets (sugar beet; [3]) | Plant response rating, Velvetleaf (velvetleaf; [1]) | Plant response rating, Velvetleaf (velvetleaf; [2]) | Velvetleaf plant response rating (0 to 10 scale) (velvetleaf; Preemergence, Rate 125 g/ha) | Velvetleaf plant response rating (velvetleaf; Rate 62 g/ha, Postemergence) | Plant response rating, Velvetleaf (velvetleaf; [3]) | S. Flatsedge plant response rating (smallflower flatsedge; [5]) | Plant response rating, Cocklebur (cocklebur; [1]) | Plant response rating, Cocklebur (cocklebur; [2]) | Cocklebur plant response rating (0 to 10 scale) (cocklebur; Preemergence, Rate 125 g/ha) | Cocklebur plant response rating (cocklebur; Preemergence, Rate 500 g/ha) | Cocklebur plant response rating (cocklebur; Rate 62 g/ha, Postemergence) | Plant response rating, Nutsedge (purple nutsedge; [1]) | Plant response rating, Nutsedge (purple nutsedge; [2]) | Nutsedge plant response rating (0 to 10 scale) (purple nutsedge; Preemergence, Rate 125 g/ha) | Nutsedge plant response rating (purple nutsedge; Preemergence, Rate 250 g/ha) | Nutsedge plant response rating (purple nutsedge; Preemergence, Rate 500 g/ha) | Nutsedge plant response rating (purple nutsedge; Rate 62 g/ha, Postemergence) | Plant response rating, Nutsedge (purple nutsedge; [3]) | Plant response rating, B. signalgrass (surinam grass; [1]) | B. signalgrass plant response rating (surinam grass; [7]) | Plant response rating, B. signalgrass (surinam grass; [8]) | Plant response rating, B. signalgrass (surinam grass; [3]) | Plant response rating, Corn (corn; [1]) | Plant response rating, Corn (corn; [2]) | Corn plant response rating (0 to 10 scale) (corn; Preemergence, Rate 125 g/ha) | Corn plant response rating (corn; Preemergence, Rate 250 g/ha) | Corn plant response rating (corn; Rate 62 g/ha, Postemergence) | Plant response rating, Corn (corn; [3]) | Plant response rating, Redroot pigweed (pigweed; [2]) | Redroot pigweed plant response rating (0 to 10 scale) (pigweed; Preemergence, Rate 125 g/ha) | Redroot pigweed plant response rating (pigweed; Rate 62 g/ha, Postemergence) | Plant response rating, Soybean (soybean; [2]) | Soybean plant response rating (0 to 10 scale) (soybean; Preemergence, Rate 125 g/ha) | Soybean plant response rating (soybean; Preemergence, Rate 250 g/ha) | Soybean plant response rating (soybean; Preemergence, Rate 500 g/ha) | Plant response rating, Wild oats (wild oat; [1]) | Plant response rating, Wild oats (wild oat; [2]) | Wild oats plant response rating (0 to 10 scale) (wild oat; Preemergence, Rate 125 g/ha) | Wild oats plant response rating (wild oat; Rate 62 g/ha, Postemergence) | Plant response rating, Rape (rape; [1]) | Plant response rating, Rape (rape; [2]) | Rape plant response rating (0 to 10 scale) (rape; Preemergence, Rate 125 g/ha) | Rape plant response rating (rape; Preemergence, Rate 250 g/ha) | Rape plant response rating (rape; Rate 62 g/ha, Postemergence) | Plant response rating, Rape (rape; [3]) | Plant response rating, Morningglory (morningglory; [2]) | Morningglory plant response rating (0 to 10 scale) (morningglory; Preemergence, Rate 125 g/ha) | Morningglory plant response rating (morningglory; Preemergence, Rate 250 g/ha) | Morningglory plant response rating (morningglory; Preemergence, Rate 500 g/ha) | Plant response rating, Rice (rice; [4]) | Rice plant response rating (rice; [5]) | Plant response rating, Rice (rice; [9])
3: Velvetleaf plant response rating (velvetleaf; Preemergence, Rate 250 g/ha) | Velvetleaf plant response rating (velvetleaf; Preemergence, Rate 500 g/ha) | Wild oats plant response rating (wild oat; Preemergence, Rate 250 g/ha) | Plant response rating, Wild oats (wild oat; [3]) | Plant response rating, Bedstraw (bedstraw; Rate 125 g/ha, scale 0 to 10, 0 is no effect, 10 is complete control) | Plant response rating, Bedstraw (bedstraw; Rate 500 g/ha, scale 0 to 10, 0 no effect, 10 complete control)
10: Plant response rating, Morningglory (morningglory; [3])
